We go through 23 molecules from patent US20080207573A1, “COMPOUNDS FOR TREATING VIRAL INFECTIONS” (priority 2006, published 2008).

A short description of series [1]: Human Liver Microsome Assay (metabolic stability). Particulars: human liver microsomes 0.5 mg/mL, test article 1 μM; for half-life at 1 μM: pH 7.4, read-out: Metabolic Stability in Human liver Microsomes T1/2. Format: in vitro ADME. The method, then:
Human Liver Microsome Assay
The microsomal fraction of liver homogenates contains endoplasmic reticulum derived cytochrome P450 enzymes that constitute the major phase I drug metabolizing enzymes. Briefly, to aid prediction of the in vivo rate of clearance of a dosed test article, an in vitro incubation containing human liver microsomes (0.5 mg/mL final protein concentration) and test article (1 μM incubation concentration) in the presence and absence of the necessary cofactor NADPH (1 mM incubation concentration) is conducted. The incubation is performed in a buffered aqueous system (100 mM potassium phosphate, pH 7.4). The concentration of the parent compound is determined using liquid chromatography coupled with tandem mass spectrometry and reported as percent remaining from a zero minute concentrations.
(In general: Liver microsomes are vesicles of endoplasmic reticulum, rich in cytochrome P450 enzymes.)

A further series concerns HIV-1IIIB. Kind of series: PBMC Drug Susceptibility Assay (HIV-1 p24 in supernatant). Particulars: Human immunodeficiency virus 1, PBMC, 168 h, HIV-1IIIB-infected human PBMCs, seven days. Format: cell-based. From the text: PBMC Drug Susceptibility Assay
Human peripheral blood mononuclear cells (PBMCS) were used to test compound antiviral activity as an indicator for clinical efficacy. PBMCs were isolated from two donors using a Ficoll-Hypaque density gradient, pooled and stimulated with PHA-L for three days. After stimulation, the cells were washed and maintained in culture medium containing IL-2. The stimulated cells were then mock-infected or batch-infected with the strain HIV-1IIIB at MOI 0.01 for one hour. Cells (unwashed) were then plated in the presence of increasing concentrations of compound and incubated for seven days. […] Compound toxicity in mock-infected cells was analyzed using the WST-1 assay.

The nature of series [2]: Compound toxicity in mock-infected MT-4 cells (WST-1 assay). Format: cell-based. As to conditions: human, read-out: TC50 (concentration of compound that results in death of 50% of the host cells). The method, then:
(§1) The HTLV-1 transformed T cell line, MT-4, is highly susceptible to HIV-1 infection. Anti-HIV-1 agents were evaluated in this target cell line by protection from the HIV-induced cytopathic effect. In this assay, viability of both HIV-1 and mock-infected cells was assessed in a […] assay that monitors the ability of metabolically-active cells to reduce the tetrazolium salt WST-1. Cytoprotection by antiviral compounds is indicated by the positive readout of increased WST-1 cleavage.
(§2) Briefly, exponentially growing MT-4 cells were mock-infected or batch-infected with the HIV-1 laboratory strain, NL4-3, at a multiplicity of infection of 0.0005. Following a two hour infection, the cells were washed to remove unbound virus and plated in the presence of increasing concentrations of compound. After four days incubation, cytoprotection in the infected cells and compound toxicity in mock-infected cells were analyzed using the WST-1 assay.
A general note: Tetrazolium assays rely on reduction of a dye to a coloured formazan, in cell work by metabolically active cells.

Series [3] deals with HIV-1 laboratory strain, NL4-3. The series can be described thus: MT-4 Cytoprotection Assay (protection from HIV-induced cytopathic effect, WST-1 readout). Format: cell-based. The method, then: MT-4 Cytoprotection Assay
as §1, §2
(Damage to the host cells serves as the signal in cytopathic effect assays.)

Series [4] deals with HIV-1 laboratory strain, NL4-3. Described as above. Format: cell-based. As to conditions: Human immunodeficiency virus 1, NL43; Table 6, printed in the MT4 IC50 column but marked MT4 assay.
Where [5] appears, read: Human immunodeficiency virus 1, NL43, MT4, 96 h, MT-4 cells, HIV-1 NL4-3, four days, read-out: EC50 (concentration of compound that reduces the virus induced cytopathic effect by 50% (MT-4)).
Where [6] appears, read: Human immunodeficiency virus 1, NL43, list of representative compounds, read-out: EC50 of less than about 100 nm (representative compounds).
Setting [7] is: Human immunodeficiency virus 1, NL43, MT4, Table 7, MT-4 cells, HIV-1 NL4-3, read-out: MT4 EC50.

Like-named read-outs stand apart in the source and are kept apart here. A value given as a limit tells only on which side of the number the result lay.

The IC50 is the midpoint of a concentration-inhibition curve. For `C=C(C)[C@@H]1CC[C@]2(C(=O)N[C@H](C)c3ccccn3)CC[C@]3(C)C(CCC4[C@@]5(C)CCC(OC(=O)CC(C)(C)C(=O)O)C(C)(C)C5CC[C@]43C)C12` (single isomer, unassigned) [Compound 105a], in series [1], the “Metabolic Stability in Human liver Microsomes % compound remaining at 40 minutes” value is 44% and the half-life at 1 μM is 36 min. In the series on HIV-1IIIB (Table 6), this molecule had an IC50 of 2.6 nM.
For `C=C(C)[C@@H]1CC[C@]2(C(=O)N[C@@H](C)c3ccccn3)CC[C@]3(C)C(CCC4[C@@]5(C)CCC(OC(=O)CC(C)(C)C(=O)O)C(C)(C)C5CC[C@]43C)C12` (single isomer, unassigned) [Compound 105b], in series [1], the “Metabolic Stability in Human liver Microsomes % compound remaining at 40 minutes” value came out at 32% and the half-life at 1 μM was 27 min. In the series with HIV-1IIIB (Table 6), this molecule yielded an IC50 of 3.1 nM.
Turning to `C=C(C)[C@@H]1CC[C@]2(C(=O)NCc3ccncc3)CC[C@]3(C)[C@H](CC[C@@H]4[C@@]5(C)CC[C@H](O)C(C)(C)[C@@H]5CC[C@]43C)[C@@H]12` [Compound 46], the CC50 at 4 days in series [2] was over 10000 nM. In series [3] (setting [5]), the EC50 is about 8600 nM.
In the case of `C=C(C)[C@@H]1CC[C@]2(C(=O)NCCc3ccc(OC)cc3)CC[C@]3(C)[C@H](CC[C@@H]4[C@@]5(C)CC[C@H](OC(=O)CC(C)(C)C(=O)O)C(C)(C)[C@@H]5CC[C@]43C)[C@@H]12` [Compound 70], the CC50 at 4 days in series [2] was over 10000 nM. The EC50 was about 2.9 nM in series [3] (setting [5]) and under 100 nM in series [3] (setting [6]).
Consider `C=C(C)[C@@H]1CC[C@]2(C(=O)NCc3ccc(C(=O)O)cc3)CC[C@]3(C)[C@H](CC[C@@H]4[C@@]5(C)CC[C@H](OC(=O)CC(C)(C)C(=O)O)C(C)(C)[C@@H]5CC[C@]43C)[C@@H]12` [Compound 71], for which the CC50 at 4 days in series [2] is about 7700 nM. The EC50 in series [3] (setting [5]) is about 126 nM.
On to `C=C(C)[C@@H]1CC[C@]2(C(=O)NCc3ccccc3C(=O)O)CC[C@]3(C)[C@H](CC[C@@H]4[C@@]5(C)CC[C@H](OC(=O)CC(C)(C)C(=O)O)C(C)(C)[C@@H]5CC[C@]43C)[C@@H]12` [Compound 73], for which the CC50 at 4 days in series [2] is about 6300 nM. For the same molecule, the values for the EC50 in series [3] (setting [5]) and in series [3] (setting [6]) were about 8.1 nM and under 100 nM, respectively.
In the same order, the values of `C=C(C)[C@@H]1CC[C@]2(C(=O)NCc3cccnc3)CC[C@]3(C)[C@H](CC[C@@H]4[C@@]5(C)CC[C@H](OC(=O)CC(C)(C)C(=O)O)C(C)(C)[C@@H]5CC[C@]43C)[C@@H]12` [Compound 76] are over 10000 nM, about 11 nM and under 100 nM.
On to `C=C(C)[C@@H]1CC[C@]2(C(=O)NCc3ccccn3)CC[C@]3(C)[C@H](CC[C@@H]4[C@@]5(C)CC[C@H](OC(=O)CC(C)(C)C(=O)O)C(C)(C)[C@@H]5CC[C@]43C)[C@@H]12` [Compound 83], for which, in series [3] (setting [6]), the EC50 was under 100 nM. This molecule yielded an IC50 in series [4] of 4.6 nM. Further, in series [1], the “Metabolic Stability in Human liver Microsomes % compound remaining at 40 minutes” value is listed as 11% and the half-life at 1 μM was under 10 min.
On to `C=C(C)[C@@H]1CC[C@]2(C(=O)NC(Cc3ccccc3)C(=O)O)CC[C@]3(C)[C@H](CC[C@@H]4[C@@]5(C)CC[C@H](OC(=O)CC(C)(C)C(=O)O)C(C)(C)[C@@H]5CC[C@]43C)[C@@H]12` (some centres unmarked) [Compound 115], for which the EC50 in series [3] (setting [6]) is under 100 nM.
For the molecule `C=C(C)[C@@H]1CC[C@]2(C(=O)N[C@@H](C)c3ccc(OC)cc3)CC[C@]3(C)[C@H](CC[C@@H]4[C@@]5(C)CC[C@H](OC(=O)CC(C)(C)C(=O)O)C(C)(C)[C@@H]5CC[C@]43C)[C@@H]12` [Compound 117], the EC50 in series [3] (setting [6]) was under 100 nM.
As to `C=C(C)[C@@H]1CC[C@]2(C(=O)NC(Cc3ccc(OC)cc3)C(=O)O)CC[C@]3(C)[C@H](CC[C@@H]4[C@@]5(C)CC[C@H](OC(=O)CC(C)(C)C(=O)O)C(C)(C)[C@@H]5CC[C@]43C)[C@@H]12` (some centres unmarked) [Compound 119], in series [3] (setting [6]), the EC50 was under 100 nM.
On the same count and under the same terms, next, `C=C(C)[C@@H]1CC[C@]2(C(=O)NC(C(=O)O)c3ccc(OC)cc3)CC[C@]3(C)[C@H](CC[C@@H]4[C@@]5(C)CC[C@H](OC(=O)CC(C)(C)C(=O)O)C(C)(C)[C@@H]5CC[C@]43C)[C@@H]12` (some centres unmarked) [Compound 120]: under 100 nM.
`C=C(C)[C@@H]1CC[C@]2(C(=O)NC3(c4ccccn4)CC3)CC[C@]3(C)[C@H](CC[C@@H]4[C@@]5(C)CC[C@H](OC(=O)CC(C)(C)C(=O)O)C(C)(C)[C@@H]5CC[C@]43C)[C@@H]12` [Compound 121]: the EC50 in series [3] (setting [6]) is under 100 nM. Besides, in series [1], the “Metabolic Stability in Human liver Microsomes % compound remaining at 40 minutes” value is on record as 42% and the half-life at 1 μM was determined as 30 min. The half-maximal inhibitory concentration (IC50) in the series with HIV-1IIIB (Table 6) was 18 nM.
`CC(C)[C@@H]1CC[C@]2(C(=O)NCc3ccccc3C(=O)O)CC[C@]3(C)[C@H](CC[C@@H]4[C@@]5(C)CC[C@H](OC(=O)CC(C)(C)C(=O)O)C(C)(C)[C@@H]5CC[C@]43C)[C@@H]12` [Compound 122]: in series [3] (setting [6]), the EC50 was under 100 nM.
Same read-out and setting: the value for `CC(C)[C@@H]1CC[C@]2(C(=O)NCC3CCCO3)CC[C@]3(C)[C@H](CC[C@@H]4[C@@]5(C)CC[C@H](OC(=O)CC(C)(C)C(=O)O)C(C)(C)[C@@H]5CC[C@]43C)[C@@H]12` (some centres unmarked) [Compound 123] was under 100 nM.
Consider `C=C(C)[C@@H]1CC[C@]2(C(=O)NCCC3CCCCC3)CC[C@]3(C)[C@H](CC[C@@H]4[C@@]5(C)CC[C@H](OC(=O)CC(C)(C)C(=O)O)C(C)(C)[C@@H]5CC[C@]43C)[C@@H]12` [Compound 124], for which, in series [3] (setting [6]), the EC50 was under 100 nM.
Consider `C=C(C)[C@@H]1CC[C@]2(C(=O)NC(C)(C)c3ccccn3)CC[C@]3(C)C(CCC4[C@@]5(C)CCC(OC(=O)CC(C)(C)C(=O)O)C(C)(C)C5CC[C@]43C)C12` (some centres unmarked) [Compound 126], for which, in series [1], the “Metabolic Stability in Human liver Microsomes % compound remaining at 40 minutes” value was found to be 47% and the half-life at 1 μM was 38 min. In the series with HIV-1IIIB (Table 6), this molecule showed an IC50 of 47.5 nM.
Take `C=C(C)[C@@H]1CC[C@]2(C(=O)Nc3cccc4cccnc34)CC[C@]3(C)C(CCC4[C@@]5(C)CCC(OC(=O)CC(C)(C)C(=O)O)C(C)(C)C5CC[C@]43C)C12` (some centres unmarked) [Compound 127]: the EC50 in series [3] (setting [7]) is 3100 nM.
In the case of `C=C(C)[C@@H]1CC[C@]2(C(=O)NCc3ccc(F)cc3C(=O)O)CC[C@]3(C)C(CCC4[C@@]5(C)CCC(OC(=O)CC(C)(C)C(=O)O)C(C)(C)C5CC[C@]43C)C12` (some centres unmarked) [Compound 128], the EC50 in series [3] (setting [7]) is 28 nM. This molecule had an IC50 in the series on HIV-1IIIB (Table 7) of 3.6 nM.
In the case of `C=C(C)[C@@H]1CC[C@]2(C(=O)NCc3ccc(C(=O)O)s3)CC[C@]3(C)C(CCC4[C@@]5(C)CCC(OC(=O)CC(C)(C)C(=O)O)C(C)(C)C5CC[C@]43C)C12` (some centres unmarked) [Compound 129], the EC50 in series [3] (setting [7]) turned out to be 371 nM.
Consider `C=C(C)[C@@H]1CC[C@]2(C(=O)NCc3cccnc3C(=O)O)CC[C@]3(C)C(CCC4[C@@]5(C)CCC(OC(=O)CC(C)(C)C(=O)O)C(C)(C)C5CC[C@]43C)C12` (some centres unmarked) [Compound 130], for which, in series [3] (setting [7]), the EC50 stood at 24 nM. Also, 44 nM corresponded to half-maximal inhibition in the series on HIV-1IIIB (Table 7) (IC50).
Regarding `C=C(C)[C@@H]1CC[C@]2(C(=O)NCc3ccc4cccc(O)c4n3)CC[C@]3(C)C(CCC4[C@@]5(C)CCC(OC(=O)CC(C)(C)C(=O)O)C(C)(C)C5CC[C@]43C)C12` (some centres unmarked) [Compound 131], the EC50 in series [3] (setting [7]) stood at 3 nM. Besides, the concentration for half-maximal inhibition (IC50) with HIV-1IIIB (Table 7) was 3.5 nM.
The corresponding values for `C=C(C)[C@@H]1CC[C@]2(C(=O)N[C@@H](C)c3cccc[n+]3[O-])CC[C@]3(C)C(CCC4[C@@]5(C)CCC(OC(=O)CC(C)(C)C(=O)O)C(C)(C)C5CC[C@]43C)C12` (some centres unmarked) [Compound 132] are 36 nM and 44 nM.
